The text below walks through data of US6620839B2, “1,3-disubstituted and 1,3,3-trisubstituted pyrrolidines as histamine-3 receptor ligands and their therapeutic applications” (Abbott Laboratories, priority 2000, dated 2003).

What is called Ki is a dissociation constant, usually derived from enzyme kinetics or from competition with a known ligand. Higher therefore signals weaker binding.

T1 sequence (Q9QYN8 whole entry): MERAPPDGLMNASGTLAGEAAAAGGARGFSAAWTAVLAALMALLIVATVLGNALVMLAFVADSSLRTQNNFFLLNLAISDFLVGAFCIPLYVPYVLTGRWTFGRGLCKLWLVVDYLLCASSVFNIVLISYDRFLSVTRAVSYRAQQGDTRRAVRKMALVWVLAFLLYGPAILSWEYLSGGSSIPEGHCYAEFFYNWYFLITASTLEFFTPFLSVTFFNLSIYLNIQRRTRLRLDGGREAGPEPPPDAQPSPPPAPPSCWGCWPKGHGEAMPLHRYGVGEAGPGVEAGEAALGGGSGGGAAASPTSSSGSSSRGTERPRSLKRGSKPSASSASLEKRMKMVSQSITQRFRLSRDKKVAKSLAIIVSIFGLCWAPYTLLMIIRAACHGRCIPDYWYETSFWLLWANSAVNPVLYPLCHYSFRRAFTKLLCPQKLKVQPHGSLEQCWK

The test has as its target T1, histamine-3 receptor (Rattus norvegicus, UniProt Q9QYN8).
T1 construct: from tissue; host or cells: male Sprague-Dawley rat brain cortex membranes
Nature of the test: Histamine-3 receptor binding, (3H)-N-α-methylhistamine displacement in rat cortical membranes. The conditions noted are these: male Sprague-Dawley rat brain cortical membranes; (3H)-N-α-methylhistamine ~0.6 nM; 30 minutes at 25° C.; Cheng-Prusoff. The protocol:
Briefly, male Sprague-Dawley rat brain cortices were homogenized (1 g tissue/10 mL buffer) in 50 mM Tris-HCl/5 mM EDTA containing protease inhibitor cocktail (Calbiochem) using a polytron set at 20,500 rpm. Homogenates were centrifuged for 20 minutes at 40,000×g. The supernatant was decanted, and pellets were weighed. The pellet was resuspended by polytron homogenization in 40 mL 50 mM Tris-HCl/5 mM EDTA with protease inhibitors and centrifuged for 20 minutes at 40,000×g. […] Test compounds were dissolved in DMSO to provide 20 mM solution, serially diluted and then added to the incubation mixtures prior to initiating the incubation assay by addition of the membranes. Thioperamide (3 μM) was used to determine nonspecific binding. Binding incubations were conducted for 30 minutes at 25° C. and terminated by addition of 2 mL of ice cold 50 mM Tris-HCl (pH 7.7) and filtration through 0.3% polyethylenimine-soaked Unifilter plates (Packard). These filters were washed 4 additional times with 2 mL of ice-cold 50 mM Tris-HCl and dried for 1 hour. Radioactivity was determined using liquid scintillation counting techniques. Results were analyzed by Hill transformation and Ki values were determined using the Cheng-Prusoff equation.
In the case of “1-(4-{3-[(3R)-3-aminopyrrolidinyl]propoxy}phenyl)-1-propanone [Example 7]”, affinity was put at a Ki of 31 nM.

For `CC(=O)c1ccc(OCCCN2CC[C@@H](NC(=O)C3CC3)C2)cc1` [Example 1, N-{(3R)-1-[3-(4-acetylphenoxy)propyl]pyrrolidinyl}cyclopropanecarboxamide], the affinity corresponds to a Ki of 105 nM.

Compound `CC(=O)c1ccc(OCCCN2CC[C@@H](NC(=O)CSc3nccc(C)n3)C2)cc1` [Example 2, N-{(3R)-1-[3-(4-acetylphenoxy)propyl]pyrrolidinyl}-2-[(4-methyl-2-pyrimidinyl)sulfanyl]acetamide] came in with a Ki of 68 nM.

`CC(=O)c1ccc(OCCCN2CC[C@@H](NC(=O)c3csc(-c4cccnc4)n3)C2)cc1` [Example 4, N-{(3R)-1-[3-(4-acetylphenoxy)propyl]pyrrolidinyl}-2-(3-pyridinyl)-1,3-thiazole-4-carboxamide]: the affinity, expressed as Ki, was 55 nM.

Turning to `CC(=O)c1ccc(OCCCN2CC[C@@H](NS(=O)(=O)c3ccc(C#N)cc3)C2)cc1` [Example 5, N-{(3R)-1-[3-(4-acetylphenoxy)propyl]pyrrolidinyl}-4-cyanobenzenesulfonamide], the Ki amounted to 6.3 nM.

For `CC(=O)c1ccc(OCCCN2CC[C@@H](NS(=O)(=O)C(C)C)C2)cc1` [Example 6, N-{(3R)-1-[3-(4-acetylphenoxy)propyl]pyrrolidinyl}-2-propanesulfonamide], the inhibition constant Ki was determined as 95 nM.

For the compound `CC(=O)c1ccc(OCCCN2CC[C@@H](N3C(=O)N[C@@H](C)C3=O)C2)cc1` [Example 9, (5S)-3-{(3R)-1-[3-(4-acetylphenoxy)propyl]pyrrolidinyl}-5-methyl-2,4-imidazolidinedione], the affinity, expressed as Ki, was 675 nM.

For `CC(=O)c1ccc(OCCCN2CC[C@@H](N3C(=O)N[C@H](C(C)C)C3=O)C2)cc1` [Example 10, (5R)-3-{(3R)-1-[3-(4-acetylphenoxy)propyl]pyrrolidinyl}-5-isopropyl-2,4-imidazolidinedione], the Ki is 626 nM.

As for `N#Cc1ccc(S(=O)(=O)N[C@@H]2CCN(CCCOc3ccc(C(=O)C4CC4)cc3)C2)cc1` [Example 11, 4-cyano-N-((3R)-1-{3-[4-(cyclopropylcarbonyl)phenoxy]propyl}pyrrolidinyl)benzenesulfonamide], affinity was put at a Ki of 4 nM.

`CC(C)S(=O)(=O)N[C@@H]1CCN(CCCOc2ccc(C(=O)C3CC3)cc2)C1` [Example 12, N-((3R)-1-{3-[4-(cyclopropylcarbonyl)phenoxy]propyl}pyrrolidinyl)-2-propanesulfonamide]: affinity was put at a Ki of 71 nM.

`O=C(N[C@@H]1CCN(CCCOc2ccc(C(=O)C3CC3)cc2)C1)c1csc(-c2cccnc2)n1` [Example 13, N-((3R)-1-{3-[4-(cyclopropylcarbonyl)phenoxy]propyl}pyrrolidinyl)-2-(3-pyridinyl)-1,3-thiazole-4-carboxamide] displayed a Ki of 50 nM.

Take `CC(=O)c1ccc(OCCCN2CC[C@@H](NC(=O)c3ccc(C#N)cc3)C2)cc1` [Example 14, N-{(3R)-1-[3-(4-acetylphenoxy)propyl]pyrrolidinyl}-4-cyanobenzamide]: the Ki was found to be 40 nM.

In the case of `N#Cc1ccc(-c2ccc(OCCCN3CC[C@@H](NS(=O)(=O)c4ccccc4)C3)cc2)cc1` [Example 15], the Ki came to 7.3 nM.

For `N#Cc1ccc(-c2ccc(OCCCN3CC[C@@H](NS(=O)(=O)c4ccc(Br)cc4)C3)cc2)cc1` [Example 16, 4-bromo-N-((3R)-1-{3-[(4′-cyano[1,1′-biphenyl]-4-yl)oxy]propyl}pyrrolidinyl)benzenesulfonamide], the affinity, expressed as Ki, was 67 nM.

As for `N#Cc1ccc(-c2ccc(OCCCN3CC[C@@H](NS(=O)(=O)c4ccc(F)cc4)C3)cc2)cc1` [Example 17], the Ki is 13 nM.

Compound `N#Cc1ccc(-c2ccc(OCCCN3CC[C@@H](NS(=O)(=O)c4ccc(Cl)cc4)C3)cc2)cc1` [Example 18, 4-chloro-N-((3R)-1-{3-[(4′-cyano[1,1′-biphenyl]-4-yl)oxy]propyl}pyrrolidinyl)benzenesulfonamide] returned a Ki of 29 nM.

Turning to `CC(=O)Nc1ccc(S(=O)(=O)N[C@@H]2CCN(CCCOc3ccc(-c4ccc(C#N)cc4)cc3)C2)cc1` [Example 19, N-(4-{[((3R)-1-{3-[(4′-cyano[1,1′-biphenyl]-4-yl)oxy]propyl}pyrrolidinyl)amino]sulfonyl}phenyl)acetamide], the Ki is 3.8 nM.

`COc1ccc(S(=O)(=O)N[C@@H]2CCN(CCCOc3ccc(-c4ccc(C#N)cc4)cc3)C2)cc1` [Example 20] gave a Ki of 12 nM.

Compound `CC(C)(C)c1ccc(S(=O)(=O)N[C@@H]2CCN(CCCOc3ccc(-c4ccc(C#N)cc4)cc3)C2)cc1` [Example 21, 4-tert-butyl-N-((3R)-1-{3-[(4′-cyano[1,1′-biphenyl]-4-yl)oxy]propyl}pyrrolidinyl)benzenesulfonamide] returned a Ki of 22 nM.

As for `Cc1ccc(S(=O)(=O)N[C@@H]2CCN(CCCOc3ccc(-c4ccc(C#N)cc4)cc3)C2)cc1` [Example 22], the Ki worked out at 12 nM.

Compound `N#Cc1ccc(-c2ccc(OCCCN3CC[C@@H](NS(=O)(=O)c4ccc(C(F)(F)F)cc4)C3)cc2)cc1` [Example 23] showed a Ki of 33 nM.

Take `COc1ccc(OC)c(S(=O)(=O)N[C@@H]2CCN(CCCOc3ccc(-c4ccc(C#N)cc4)cc3)C2)c1` [Example 24]: the Ki worked out at 43 nM.

In turn, `Cc1ccccc1S(=O)(=O)N[C@@H]1CCN(CCCOc2ccc(-c3ccc(C#N)cc3)cc2)C1` [Example 25] came in with a Ki of 30 nM.

In turn, `N#Cc1ccc(-c2ccc(OCCCN3CC[C@@H](NS(=O)(=O)c4ccc(F)c(Cl)c4)C3)cc2)cc1` [Example 26, 3-chloro-N-((3R)-1-{3-[(4′-cyano[1,1′-biphenyl]-4-yl)oxy]propyl}pyrrolidinyl)-4-fluorobenzenesulfonamide] registered a Ki of 57 nM.

`CCc1ccc(S(=O)(=O)N[C@@H]2CCN(CCCOc3ccc(-c4ccc(C#N)cc4)cc3)C2)cc1` [Example 27] registered a Ki of 18 nM.

Regarding `CC(C)c1ccc(S(=O)(=O)N[C@@H]2CCN(CCCOc3ccc(-c4ccc(C#N)cc4)cc3)C2)cc1` [Example 28], the Ki was 16 nM.

For `N#Cc1ccc(-c2ccc(OCCCN3CC[C@@H](NS(=O)(=O)c4ccccc4F)C3)cc2)cc1` [Example 29], the Ki came to 5.9 nM.

Compound `N#Cc1ccc(-c2ccc(OCCCN3CC[C@@H](NS(=O)(=O)c4ccccc4Cl)C3)cc2)cc1` [Example 30, 2-chloro-N-((3R)-1-{3-[(4′-cyano[1,1′-biphenyl]-4-yl)oxy]propyl}pyrrolidinyl)benzenesulfonamide] showed a Ki of 10 nM.

Take `N#Cc1ccc(-c2ccc(OCCCN3CC[C@@H](NS(=O)(=O)c4cccc(Cl)c4)C3)cc2)cc1` [Example 31, 3-chloro-N-((3R)-1-{3-[(4′-cyano[1,1′-biphenyl]-4-yl)oxy]propyl}pyrrolidinyl)benzenesulfonamide]: the Ki was 30 nM.

Turning to `N#Cc1ccc(-c2ccc(OCCCN3CC[C@@H](NS(=O)(=O)c4cc(Cl)cc(Cl)c4)C3)cc2)cc1` [Example 32, 3,5-dichloro-N-((3R)-1-{3-[(4′-cyano[1,1′-biphenyl]-4-yl)oxy]propyl}pyrrolidinyl)benzenesulfonamide], the Ki was found to be 99 nM.

`N#Cc1ccc(-c2ccc(OCCCN3CC[C@@H](NS(=O)(=O)c4ccc(C#N)cc4)C3)cc2)cc1` [Example 33, 4-cyano-N-((3R)-1-{3-[(4′-cyano[1,1′-biphenyl]-4-yl)oxy]propyl}pyrrolidinyl)benzenesulfonamide] yielded a Ki of 16 nM.

Compound `N#Cc1ccc(-c2ccc(OCCCN3CC[C@@H](NS(=O)(=O)c4cccc(C#N)c4)C3)cc2)cc1` [Example 34, 3-cyano-N-((3R)-1-{3-[(4′-cyano[1,1′-biphenyl]-4-yl)oxy]propyl}pyrrolidinyl)benzenesulfonamide] showed a Ki of 11 nM.

Compound `Cn1cnc(S(=O)(=O)N[C@@H]2CCN(CCCOc3ccc(-c4ccc(C#N)cc4)cc3)C2)c1` [Example 35] had a Ki of 13 nM.

Turning to `N#Cc1ccc(-c2ccc(OCCCN3CC[C@@H](NS(=O)(=O)c4cccs4)C3)cc2)cc1` [Example 36], the inhibition constant (Ki) is 12 nM.

In the case of `Cc1c(S(=O)(=O)N[C@@H]2CCN(CCCOc3ccc(-c4ccc(C#N)cc4)cc3)C2)sc2ccc(Cl)cc12` [Example 37, 5-chloro-N-((3R)-1-{3-[(4′-cyano[1,1′-biphenyl]-4-yl)oxy]propyl}pyrrolidinyl)-3-methyl-1-benzothiophene-2-sulfonamide], the Ki amounted to 349 nM.

`N#Cc1ccc(-c2ccc(OCCCN3CC[C@@H](NS(=O)(=O)c4cc(C(F)(F)F)cc(C(F)(F)F)c4)C3)cc2)cc1` [Example 38] displayed a Ki of 132 nM.

The compound `CC(=O)Nc1nc(C)c(S(=O)(=O)N[C@@H]2CCN(CCCOc3ccc(-c4ccc(C#N)cc4)cc3)C2)s1` [Example 39, N-(5-{[((3R)-1-{3-[(4′-cyano[1,1′-biphenyl]-4-yl)oxy]propyl}pyrrolidinyl)amino]sulfonyl}-4-methyl-1,3-thiazol-2-yl)acetamide] registered a Ki of 7.6 nM.

Compound `N#Cc1ccc(-c2ccc(OCCCN3CC[C@@H](NS(=O)(=O)c4cccc5cccnc45)C3)cc2)cc1` [Example 40] displayed an inhibition constant Ki of 51 nM.

Compound `CCCCOc1ccc(S(=O)(=O)N[C@@H]2CCN(CCCOc3ccc(-c4ccc(C#N)cc4)cc3)C2)cc1` [Example 41, 4-butoxy-N-((3R)-1-{3-[(4′-cyano[1,1′-biphenyl]-4-yl)oxy]propyl}pyrrolidinyl)benzenesulfonamide] had a Ki of 48 nM.
